What is called IC50 is the concentration needed to halve the response being measured.

Some results are limits rather than exact numbers.

The target in assay [1] is Vascular endothelial growth factor receptor 1 (Homo sapiens, UniProt P17948). Put plainly: Inhibition of VEGFR1 assessed as inhibition of phosphorylation in presence of 2 uM ATP by HTRF assay. The class given is functional. A general note: TR-FRET usually uses a lanthanide donor and a delayed reading to cut background.
For assay [2], the species on record is Homo sapiens. Put plainly: Inhibition of Cdk1 at 10 uM. The arrangement: scale not given: the % may be the effect or the level left.
The species entered for assay [3] is Homo sapiens. Put plainly: Inhibition of bcr-Abl at 10 uM. On the set-up: scale not given: the % may be the effect or the level left.
Assay [4] addresses Epidermal growth factor receptor (Homo sapiens) (UniProt P00533). Description: Inhibition of ErbB1 at 10 uM. The arrangement: scale not given: the % may be the effect or the level left.
Assay [5] concerns the target Insulin-like growth factor 1 receptor (Homo sapiens) (UniProt P08069). Description: Inhibition of IGF1R at 10 uM. On the set-up: scale not given: the % may be the effect or the level left.
In assay [6] the target is Vascular endothelial growth factor receptor 3 (Homo sapiens) (UniProt P35916). Put plainly: Inhibition of Flt4 at 10 uM. The arrangement: scale not given: the % may be the effect or the level left.
The target in assay [7] is Hepatocyte growth factor receptor (Homo sapiens) (UniProt P08581). Description: Inhibition of cMet at 10 uM. The arrangement: scale not given: the % may be the effect or the level left.
Assay [8] is filed under the species Homo sapiens. Put plainly: Inhibition of InR at 10 uM. On the set-up: scale not given: the % may be the effect or the level left.
The species named for assay [9] is Homo sapiens. Put plainly: Inhibition of PKA at 10 uM. On the set-up: scale not given: the % may be the effect or the level left.
Assay [10] addresses Glycogen synthase kinase-3 beta (Homo sapiens) (UniProt P49841). Description: Inhibition of GSK3-beta at 10 uM. The arrangement: scale not given: the % may be the effect or the level left.
Assay [11] addresses Receptor tyrosine-protein kinase erbB-2 (Homo sapiens) (UniProt P04626). Put plainly: Inhibition of ErbB2/Her2 at 10 uM. The arrangement: scale not given: the % may be the effect or the level left.
The target in assay [12] is RAF proto-oncogene serine/threonine-protein kinase (Homo sapiens) (UniProt P04049). Put plainly: Inhibition of Raf1 at 10 uM. The arrangement: scale not given: the % may be the effect or the level left.
Chain of RAF proto-oncogene serine/threonine-protein kinase (Homo sapiens) (P04049 whole entry): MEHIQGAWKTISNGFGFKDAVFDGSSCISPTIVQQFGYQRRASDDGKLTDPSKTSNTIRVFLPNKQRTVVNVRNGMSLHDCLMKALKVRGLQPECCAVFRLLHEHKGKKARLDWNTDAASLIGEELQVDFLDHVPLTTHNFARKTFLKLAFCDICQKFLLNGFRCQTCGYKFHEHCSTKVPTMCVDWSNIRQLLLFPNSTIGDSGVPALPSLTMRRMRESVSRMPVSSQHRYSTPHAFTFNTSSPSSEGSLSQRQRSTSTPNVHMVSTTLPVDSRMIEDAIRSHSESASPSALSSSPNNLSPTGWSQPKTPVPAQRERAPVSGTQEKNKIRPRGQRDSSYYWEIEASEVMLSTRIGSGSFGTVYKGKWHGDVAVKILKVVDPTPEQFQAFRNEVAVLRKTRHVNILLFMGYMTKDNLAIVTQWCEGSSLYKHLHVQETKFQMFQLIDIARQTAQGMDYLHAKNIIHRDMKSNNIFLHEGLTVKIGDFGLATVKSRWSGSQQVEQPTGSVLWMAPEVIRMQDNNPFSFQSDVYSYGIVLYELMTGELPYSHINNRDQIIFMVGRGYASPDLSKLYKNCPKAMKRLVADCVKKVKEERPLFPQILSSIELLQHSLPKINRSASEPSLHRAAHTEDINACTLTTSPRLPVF
In assay [13] the target is Fibroblast growth factor receptor 1 (Homo sapiens) (UniProt P11362). Put plainly: Inhibition of FGFR1 at 10 uM. The arrangement: scale not given: the % may be the effect or the level left.
In assay [14] the target is Receptor-type tyrosine-protein kinase FLT3 (Homo sapiens) (UniProt P36888). Description: Inhibition of Flt3 at 10 uM. The arrangement: scale not given: the % may be the effect or the level left.
Chain of Receptor-type tyrosine-protein kinase FLT3 (Homo sapiens) (P36888 whole entry): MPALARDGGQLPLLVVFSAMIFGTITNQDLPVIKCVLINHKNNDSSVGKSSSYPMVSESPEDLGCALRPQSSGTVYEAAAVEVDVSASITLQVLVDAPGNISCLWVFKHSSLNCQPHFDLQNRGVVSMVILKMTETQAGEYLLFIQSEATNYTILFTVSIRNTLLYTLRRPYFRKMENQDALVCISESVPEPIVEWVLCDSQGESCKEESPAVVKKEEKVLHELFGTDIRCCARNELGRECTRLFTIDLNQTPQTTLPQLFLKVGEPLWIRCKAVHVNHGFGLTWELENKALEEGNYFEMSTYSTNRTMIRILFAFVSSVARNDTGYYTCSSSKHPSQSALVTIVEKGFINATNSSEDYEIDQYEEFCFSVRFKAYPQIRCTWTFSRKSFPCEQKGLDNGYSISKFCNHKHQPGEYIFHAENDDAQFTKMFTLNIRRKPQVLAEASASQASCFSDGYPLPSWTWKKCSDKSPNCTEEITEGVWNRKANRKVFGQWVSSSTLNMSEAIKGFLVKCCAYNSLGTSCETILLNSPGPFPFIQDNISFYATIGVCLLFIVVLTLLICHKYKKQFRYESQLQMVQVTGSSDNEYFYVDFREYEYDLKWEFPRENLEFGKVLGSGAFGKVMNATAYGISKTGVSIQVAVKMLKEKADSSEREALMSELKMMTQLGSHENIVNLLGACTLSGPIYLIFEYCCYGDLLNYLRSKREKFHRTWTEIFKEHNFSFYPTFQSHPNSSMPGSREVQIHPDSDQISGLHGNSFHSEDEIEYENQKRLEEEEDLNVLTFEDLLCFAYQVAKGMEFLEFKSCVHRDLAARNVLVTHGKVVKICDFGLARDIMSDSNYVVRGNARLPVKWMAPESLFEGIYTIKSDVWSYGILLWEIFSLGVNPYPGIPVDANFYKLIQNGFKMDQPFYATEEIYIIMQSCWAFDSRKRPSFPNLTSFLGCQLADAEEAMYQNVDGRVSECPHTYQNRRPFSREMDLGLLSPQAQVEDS
Assay [15] deals with Cyclin-dependent kinase 2 (Homo sapiens) (UniProt P24941). Put plainly: Inhibition of Cdk2 at 10 uM. On the set-up: scale not given: the % may be the effect or the level left.
The target of assay [16] is T1, Vascular endothelial growth factor receptor 2 (Homo sapiens, UniProt P35968). Description: Inhibition of VEGFR2 assessed as inhibition of phosphorylation in presence of 2 uM ATP by HTRF assay. The class given is functional.
The target of assay [17] is RAC-alpha serine/threonine-protein kinase (Homo sapiens) (UniProt P31749). Description: Inhibition of PKB/Akt at 10 uM. On the set-up: scale not given: the % may be the effect or the level left.
Chain of RAC-alpha serine/threonine-protein kinase (Homo sapiens) (P31749 whole entry): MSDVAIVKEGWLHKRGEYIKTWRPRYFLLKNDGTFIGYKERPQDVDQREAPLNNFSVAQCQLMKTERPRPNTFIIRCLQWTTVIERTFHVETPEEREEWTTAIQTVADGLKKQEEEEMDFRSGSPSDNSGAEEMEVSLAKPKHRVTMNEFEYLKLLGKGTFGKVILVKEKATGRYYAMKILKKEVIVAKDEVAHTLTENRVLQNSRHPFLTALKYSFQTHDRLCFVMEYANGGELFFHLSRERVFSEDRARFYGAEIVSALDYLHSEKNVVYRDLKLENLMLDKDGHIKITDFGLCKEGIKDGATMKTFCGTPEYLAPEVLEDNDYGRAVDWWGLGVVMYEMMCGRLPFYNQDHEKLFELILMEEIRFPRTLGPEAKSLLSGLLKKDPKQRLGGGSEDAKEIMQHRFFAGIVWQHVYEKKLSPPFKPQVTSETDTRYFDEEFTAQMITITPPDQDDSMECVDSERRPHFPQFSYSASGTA
Assay [18] concerns the target T1, Vascular endothelial growth factor receptor 2. Description: Inhibition of VEGFR2 assessed as inhibition of phosphorylation in human 293 cells by cell-based ELISA. The class given is functional, HEK293. For orientation: In an ELISA, binding on a coated surface is turned into a signal by an enzyme label.

Chain of Vascular endothelial growth factor receptor 1 (P17948 whole entry): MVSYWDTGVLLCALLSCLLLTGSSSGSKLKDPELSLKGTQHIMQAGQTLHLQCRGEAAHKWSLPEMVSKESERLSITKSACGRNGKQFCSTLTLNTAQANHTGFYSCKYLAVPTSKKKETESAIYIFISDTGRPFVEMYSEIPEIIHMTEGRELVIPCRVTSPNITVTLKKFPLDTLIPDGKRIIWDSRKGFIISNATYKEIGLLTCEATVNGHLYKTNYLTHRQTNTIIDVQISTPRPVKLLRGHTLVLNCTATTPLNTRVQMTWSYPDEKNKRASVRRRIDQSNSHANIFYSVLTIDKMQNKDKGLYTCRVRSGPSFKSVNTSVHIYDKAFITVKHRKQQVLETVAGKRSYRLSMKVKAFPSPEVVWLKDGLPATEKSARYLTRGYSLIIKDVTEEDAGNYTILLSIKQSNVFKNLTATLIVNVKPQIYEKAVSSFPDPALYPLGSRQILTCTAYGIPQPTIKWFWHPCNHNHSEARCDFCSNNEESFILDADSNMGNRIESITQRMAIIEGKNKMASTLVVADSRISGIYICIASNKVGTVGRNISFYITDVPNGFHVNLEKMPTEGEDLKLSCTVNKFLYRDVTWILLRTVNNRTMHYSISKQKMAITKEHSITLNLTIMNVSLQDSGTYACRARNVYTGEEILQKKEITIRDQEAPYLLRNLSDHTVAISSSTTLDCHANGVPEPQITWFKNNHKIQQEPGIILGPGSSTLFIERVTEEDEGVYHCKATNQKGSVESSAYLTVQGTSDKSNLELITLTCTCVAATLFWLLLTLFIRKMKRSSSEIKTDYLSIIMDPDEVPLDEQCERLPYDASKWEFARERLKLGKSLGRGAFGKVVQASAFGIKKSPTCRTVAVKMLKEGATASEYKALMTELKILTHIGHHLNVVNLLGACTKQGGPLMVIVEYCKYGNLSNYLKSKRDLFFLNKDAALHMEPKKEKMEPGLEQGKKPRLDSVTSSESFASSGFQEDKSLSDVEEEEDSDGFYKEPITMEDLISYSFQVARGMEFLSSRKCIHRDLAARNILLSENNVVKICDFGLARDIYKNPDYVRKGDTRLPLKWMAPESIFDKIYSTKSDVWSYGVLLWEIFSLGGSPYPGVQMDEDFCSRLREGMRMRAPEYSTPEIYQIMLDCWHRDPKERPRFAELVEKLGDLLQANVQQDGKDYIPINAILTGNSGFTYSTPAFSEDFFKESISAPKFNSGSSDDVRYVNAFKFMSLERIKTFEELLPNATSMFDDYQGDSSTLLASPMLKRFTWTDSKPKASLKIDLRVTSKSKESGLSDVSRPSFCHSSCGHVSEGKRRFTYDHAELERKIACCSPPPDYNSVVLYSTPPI
Chain of Epidermal growth factor receptor (Homo sapiens) (P00533 whole entry): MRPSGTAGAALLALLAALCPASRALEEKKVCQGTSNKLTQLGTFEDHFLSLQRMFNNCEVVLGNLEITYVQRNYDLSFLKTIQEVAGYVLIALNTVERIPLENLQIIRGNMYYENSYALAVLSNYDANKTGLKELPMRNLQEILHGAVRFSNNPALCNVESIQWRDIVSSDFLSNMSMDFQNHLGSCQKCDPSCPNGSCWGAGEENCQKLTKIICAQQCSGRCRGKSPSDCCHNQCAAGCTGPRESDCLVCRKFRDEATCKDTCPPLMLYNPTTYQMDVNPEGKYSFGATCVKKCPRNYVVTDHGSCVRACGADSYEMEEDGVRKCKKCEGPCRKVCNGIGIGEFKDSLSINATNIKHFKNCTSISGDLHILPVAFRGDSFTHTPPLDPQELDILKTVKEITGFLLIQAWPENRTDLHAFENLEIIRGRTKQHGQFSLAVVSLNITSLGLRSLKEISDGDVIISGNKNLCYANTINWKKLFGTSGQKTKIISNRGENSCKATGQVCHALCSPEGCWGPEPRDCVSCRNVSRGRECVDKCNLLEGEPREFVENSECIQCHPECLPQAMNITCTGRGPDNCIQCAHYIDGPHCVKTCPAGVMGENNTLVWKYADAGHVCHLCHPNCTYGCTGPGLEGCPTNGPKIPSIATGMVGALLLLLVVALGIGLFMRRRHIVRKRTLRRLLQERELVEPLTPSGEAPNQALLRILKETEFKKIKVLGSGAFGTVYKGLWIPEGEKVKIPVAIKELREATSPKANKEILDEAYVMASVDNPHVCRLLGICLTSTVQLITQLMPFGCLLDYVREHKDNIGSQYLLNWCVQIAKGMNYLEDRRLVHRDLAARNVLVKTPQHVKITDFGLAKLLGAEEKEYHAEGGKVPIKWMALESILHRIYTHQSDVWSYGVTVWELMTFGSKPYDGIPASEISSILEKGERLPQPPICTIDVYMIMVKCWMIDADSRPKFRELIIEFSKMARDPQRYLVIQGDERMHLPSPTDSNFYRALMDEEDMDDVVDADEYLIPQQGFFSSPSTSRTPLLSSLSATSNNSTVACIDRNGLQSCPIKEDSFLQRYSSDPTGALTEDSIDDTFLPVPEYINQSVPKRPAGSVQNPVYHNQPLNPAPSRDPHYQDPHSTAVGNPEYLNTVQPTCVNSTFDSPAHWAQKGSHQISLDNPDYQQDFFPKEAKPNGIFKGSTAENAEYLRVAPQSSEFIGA
Chain of Glycogen synthase kinase-3 beta (Homo sapiens) (P49841 whole entry, looked up): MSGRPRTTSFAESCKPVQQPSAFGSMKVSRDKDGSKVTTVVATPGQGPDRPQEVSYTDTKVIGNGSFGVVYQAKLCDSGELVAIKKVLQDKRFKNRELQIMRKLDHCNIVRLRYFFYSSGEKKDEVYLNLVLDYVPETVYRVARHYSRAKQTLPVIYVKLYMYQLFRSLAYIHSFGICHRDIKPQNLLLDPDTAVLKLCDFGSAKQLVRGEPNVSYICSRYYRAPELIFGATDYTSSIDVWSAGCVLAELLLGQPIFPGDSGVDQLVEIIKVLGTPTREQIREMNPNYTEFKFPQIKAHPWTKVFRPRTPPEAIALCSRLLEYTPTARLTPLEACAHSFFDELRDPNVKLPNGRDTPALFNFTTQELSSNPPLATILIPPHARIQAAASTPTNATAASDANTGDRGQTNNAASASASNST

Regarding `O=C(Nc1cnc2ccccc2c1)c1ccnn1CCc1ccncc1`, the IC50 in assay [1] came out at 380 nM; in [16] it was 180 nM; in [18], 1220 nM. For the same molecule, the Activity in the assay listed under Homo sapiens [2] was over 30%; in the assay listed under Homo sapiens [3] it was over 30%; in assay [4], under 30%; in [5] it was over 30%; in assay [6] it was over 30%; in assay [7], over 30%. The Activity (in the assay listed under Homo sapiens [8]; in the assay listed under Homo sapiens [9]; in [10]; in assay [11]; in assay [12]; in assay [13]) was over 30% throughout. The Activity in assay [14], in assay [15] and in assay [17] was over 30% each time.

Turning to `O=C(Nc1ccc(Cl)cc1)c1ccnn1CCc1ccccn1`, the IC50 in assay [1], in [16] and in assay [18] was over 10000 nM throughout. In addition, the Activity in the assay listed under Homo sapiens [2] is over 30%; in the assay filed under Homo sapiens [3], over 30%; in assay [4], under 30%; in assay [5], over 30%; in assay [6] it was over 30%; in assay [7] it was over 30%. The Activity (in the assay listed under Homo sapiens [8]; in the assay listed under Homo sapiens [9]; in assay [10]; in assay [11]; in [12]; in assay [13]) was over 30% throughout. Further, the Activity in assay [14], in assay [15] and in assay [17] was over 30% throughout.

In the case of `O=C(Nc1ccc(Cl)cc1)c1ccnn1CCc1ccc(F)c(F)c1`, the IC50 in assay [1], in assay [16] and in assay [18] was over 10000 nM throughout. The Activity in the assay listed under Homo sapiens [2] was over 30%; in the assay listed under Homo sapiens [3], over 30%; in assay [4], under 30%; in [5], over 30%; in assay [6], over 30%; in [7] it was over 30%. In addition, the Activity (in the assay listed under Homo sapiens [8]; in the assay filed under Homo sapiens [9]; in [10]; in [11]; in assay [12]; in [13]) was over 30% each time. In addition, the Activity in [14], in assay [15] and in [17] was over 30% throughout.

As for `O=C(Nc1ccc(C(F)(F)F)cc1)c1nnnn1CCc1ccncc1`, the IC50 in [1] turned out to be 1080 nM; in [16], 850 nM; in assay [18], 2960 nM. Moreover, the Activity in the assay filed under Homo sapiens [2] was over 30%; in the assay filed under Homo sapiens [3], over 30%; in assay [4], under 30%; in [5], over 30%; in assay [6], over 30%; in assay [7], over 30%. Also, the Activity (in the assay listed under Homo sapiens [8]; in the assay filed under Homo sapiens [9]; in [10]; in assay [11]; in assay [12]; in [13]) was over 30% each time. For the same molecule, the Activity in assay [14], in assay [15] and in [17] was over 30% throughout.

Regarding `O=C(Nc1cccc(OC(F)(F)F)c1)c1ccnn1CCc1ccncc1`, the values for the IC50 in [1], in assay [16] and in assay [18] were 450 nM, 370 nM and 280 nM, respectively. Also, the Activity in the assay filed under Homo sapiens [2] was over 30%; in the assay listed under Homo sapiens [3], over 30%; in assay [4], under 30%; in assay [5], over 30%; in assay [6], over 30%; in assay [7] it was over 30%. Moreover, the Activity (in the assay listed under Homo sapiens [8]; in the assay filed under Homo sapiens [9]; in assay [10]; in assay [11]; in [12]; in assay [13]) was over 30% each time. For the same molecule, the Activity in [14], in [15] and in [17] was over 30% in each case.

Consider `Cc1nn(CCc2ccncc2)c(C(=O)Nc2ccc(OC(F)(F)F)cc2)c1C`, for which the IC50 in assay [1], in assay [16] and in assay [18] was over 10000 nM in each case. The Activity in the assay filed under Homo sapiens [2] was over 30%; in the assay filed under Homo sapiens [3], over 30%; in [4] it was under 30%; in assay [5], over 30%; in assay [6], over 30%; in assay [7], over 30%. Moreover, the Activity (in the assay listed under Homo sapiens [8]; in the assay listed under Homo sapiens [9]; in [10]; in assay [11]; in assay [12]; in assay [13]) was over 30% each time. In addition, the Activity in assay [14], in assay [15] and in assay [17] was over 30% in each case.

As to `O=C(Nc1ccc(OC(F)(F)F)cc1)c1nnnn1CCc1ccncc1`, the IC50 in assay [1] worked out at 3880 nM; in assay [16] it was 2650 nM; in [18] it was 2970 nM. Besides, the Activity in the assay filed under Homo sapiens [2] is over 30%; in the assay listed under Homo sapiens [3] it was over 30%; in assay [4] it was under 30%; in assay [5], over 30%; in assay [6] it was over 30%; in [7] it was over 30%. Besides, the Activity (in the assay filed under Homo sapiens [8]; in the assay filed under Homo sapiens [9]; in assay [10]; in assay [11]; in assay [12]; in assay [13]) was over 30% throughout. For the same molecule, the Activity in [14], in [15] and in [17] was over 30% in each case.

Take `O=C(Nc1ccc(Cl)cc1)c1ccnn1CCc1cnoc1`: the IC50 in assay [1], in assay [16] and in assay [18] was over 10000 nM in each case. Also, the Activity is over 30% in the assay listed under Homo sapiens [2]; over 30% in the assay listed under Homo sapiens [3]; under 30% in assay [4]; over 30% in assay [5]; over 30% in [6]; over 30% in assay [7]. Moreover, the Activity (in the assay filed under Homo sapiens [8]; in the assay listed under Homo sapiens [9]; in [10]; in [11]; in [12]; in assay [13]) was over 30% throughout. Also, the Activity in [14], in assay [15] and in [17] was over 30% each time.

Turning to `COc1ccc(CCn2nccc2C(=O)Nc2ccc(Cl)cc2)cc1OC`, the IC50 in assay [1], in assay [16] and in [18] was over 10000 nM throughout. Besides, the Activity was over 30% in the assay filed under Homo sapiens [2]; over 30% in the assay filed under Homo sapiens [3]; under 30% in assay [4]; over 30% in assay [5]; over 30% in assay [6]; over 30% in [7]. Moreover, the Activity (in the assay listed under Homo sapiens [8]; in the assay listed under Homo sapiens [9]; in [10]; in [11]; in assay [12]; in assay [13]) was over 30% each time. Moreover, the Activity in assay [14], in assay [15] and in assay [17] was over 30% throughout.

Consider `CN(C(=O)c1ccnn1CCc1ccncc1)c1ccc(Cl)cc1`, for which the IC50 in [1] and in assay [16] was over 10000 nM throughout.

The record behind these values is ChEMBL document CHEMBL1148870, “Novel inhibitors of VEGF receptors-1 and -2 based on azole-5-carboxamide templates” (Bioorg Med Chem Lett, 2007).
